Results: patent US20120270935A1, “FORMULATIONS” (priority 2009, published 2012)
In brackets after ≈: the same amount, converted by molar mass. Like-named read-outs stand apart in the source and are kept apart here.

Assays:
S. mutans ATCC 25175 [1] = assay: Disc diffusion assay (DDA); format: cell-based, Streptococcus mutans; details: 200 μg per disc, 48 hours at 37° C., 5% carbon dioxide, single plates
Source text: (a) staphylococci. The Staphylococcus aureus strain used was ATCC 29213. S. aureus and other staphylococci are common causes of a wide range of skin, skin structure and wound infections; S. aureus is also known to exacerbate eczema. The ATCC 29213 strain is known to be susceptible to beta-lactam antibiotics such as methicillin. The Staphylococcus epidermidis strain used was NCTC 11047. Staph. epidermidis forms part of the resident flora of skin and is an opportunistic pathogen which can cause biofilms to grow for instance on plastic surgical implants such as catheters. Unless otherwise stated, the staphylococci were cultured and maintained on Mueller-Hinton Medium (agar and broth) at pH 7.2; cultures were incubated aerobically at 37° C. for 19-20 hours, at pH 7 (±0.2). (b) C. striatum NCTC 764. Corynebacterium striatum is closely related to organisms (aerobic diphtheroids of the genus Corynebacterium) that cause body odour. It was cultured and maintained on Mueller-Hinton medium (agar and broth). All cultures were incubated aerobically at 37° C. for 72 hours, at pH 7 (±0.2). (c) streptococci. The strains tested were S. mutans ATCC 25175 and S. pyogenes ATCC 12344. […] The diameter of this zone of “inhibition” was measured using a ProtoCOL™ automated zone sizer (Synbiosis, Cambridge, UK). […]

S. mutans ATCC 25175 [2] = assay: MIC assay; format: cell-based, Streptococcus mutans; details: Wilkins-Chalgren broth pH 7 (±0.2)
Method: This is a standard international method for quantitatively assessing the antimicrobial activity of a compound in a liquid medium. The method used a sterile 96-well microtitre plate, capable of holding about 200 μl of liquid per well. […] The culture medium was as described above.
(§1) The wells were inoculated with a liquid suspension of freshly grown micro-organism and incubated under the conditions described above. After incubation, the microtitre plate was examined visually (with the aid of a light box) for cloudiness in each well, which would indicate microbial growth. The MIC value was recorded as the lowest concentration of test compound required to inhibit microbial growth, ie the lowest concentration for which the liquid in the well remained clear.
(§2) The assays included both negative (culture medium with no micro-organisms) and positive (culture medium plus diluting solvent plus micro-organism) controls.

P. acnes NCTC 737 = assay: Minimum inhibitory concentration (MIC) assay, broth microtitre; format: cell-based, Propionibacterium acnes; details: compound in DMSO, triplicate
Method: The first test micro-organism used was Propionibacterium acnes NCTC 737. This is a propionibacterial strain and is the type strain of the […]; it is fully susceptible to antibiotics.
The propionibacteria were cultured and maintained on Wilkins-Chalgren Anaerobe Medium (agar and broth) at pH 6.0; all cultures were incubated anaerobically at 37° C. for 72 hours.
This is a standard international method for quantitatively assessing the antimicrobial activity of a compound in a liquid medium. The method used a sterile 96-well microtitre plate, capable of holding about 200 μl of liquid per well. The wells contained liquid culture medium and ranges of decreasing concentrations of the relevant test compound in doubling dilutions (eg 1000, 500, 250, 125 . . . μg/ml, etc. down to 0.49 μg/ml). The culture medium was as described above.
as §1, §2
DDA assays, as described above, were carried out using as the test formulation the gel prepared in Example 2B above. Also tested was the Example 2B gel minus the Klucel™ thickener, which was also subjected to MIC and MBC assays. For the DDAs, which were performed in triplicate, 100 μl of the relevant formulation was loaded onto each disc, and zones of inhibition were recorded after 3 days' anaerobic incubation at 37° C. The MIC and MBC tests were performed in duplicate and the results recorded after 3 days and 7 days respectively, post-subculture onto drug-free medium. […]

CC(=O)c1c([O-])c(C)c([O-])c2c1OC1=CC(=O)C(C(C)=O)C(=O)C12C.[Cu+2] (stereo not drawn) [Copper usnate, copper (II) usnate]
DDA zone diameter (S. mutans ATCC 25175 [1]): 32.4 mm | MIC (S. mutans ATCC 25175 [2]): 1.95 µg/mL | MIC (P. acnes NCTC 737): 0.49 µg/mL

CC(=O)c1c(O)c(C)c(O)c2c1OC1=CC(=O)C(C(C)=O)C(=O)C12C (stereo not drawn) [Usnic acid, 2,6-diacetyl-7,9-dihydroxy-8,9b-dimethyl-1,3(2H,9bh)-dibenzofurandione]
zone of inhibition at 200 µg/disc (S. mutans ATCC 25175 [1]; Streptococcus mutans, ATCC25175, read-out: DDA zone diameter): 31.2 mm | MIC (S. mutans ATCC 25175 [2]; Streptococcus mutans, ATCC25175, read-out: MIC): 3.9 µg/mL (≈ 11.3 µM) | MIC (P. acnes NCTC 737; Cutibacterium acnes, NCTC737, read-out: MIC): 0.49 µg/mL (≈ 1.42 µM)
